The text below walks through data of a flash point compilation (Sun et al. 2020).

In the case of `C#CCC1=C(C)C(OC(=O)[C@H]2[C@H](C=C(C)C)C2(C)C)CC1=O` (stereo partly drawn), the flash point was determined as 139.00 °C.
The value for `O=C([O-])CN(CCO)CCN(CC(=O)[O-])CC(=O)[O-].[Na+].[Na+].[Na+]` was 100.00 °C; that for `O=c1oc2ccccc2c(O)c1C(CC(O)c1ccc(-c2ccc(Br)cc2)cc1)c1ccccc1` (stereo not drawn) was 218.00 °C; that for `C#CCN1CC(=O)N(COC(=O)C2C(C=C(C)C)C2(C)C)C1=O` (stereo not drawn) was 110.00 °C.
With `CC(C)(C)C(=O)C(Oc1ccc(Cl)cc1)n1cncn1` (stereo not drawn) the figure was 72.00 °C.
As to `CC(C)C1=CC2=CC[C@@H]3[C@](C)(CCC[C@@]3(C)C(=O)O)[C@H]2CC1`, the flash point came out at 187.00 °C.
Molecule `CC(C)CCCCCCCOP(=S)([S-])OCCCCCCCC(C)C.CC(C)CCCCCCCOP(=S)([S-])OCCCCCCCC(C)C.[Zn+2]` returned a flash point of 280.00 °C.
With `CC(C)CCCCCOP(=S)([S-])OCCCCCC(C)C.CC(C)CCCCCOP(=S)([S-])OCCCCCC(C)C.[Zn+2]` the figure was 160.00 °C; with `CC(C)N(C(=O)SCC(Cl)=C(Cl)Cl)C(C)C`, 90.00 °C.
With `CC(C)N(C(=O)SCC(Cl)=CCl)C(C)C` the figure was 96.00 °C.
The value for `CC1(C)C(C(=O)OC(C#N)c2cccc(Oc3ccccc3)c2)C1C(Br)C(Br)(Br)Br` (stereo not drawn) was 26.00 °C; that for `COP(=S)(OC)Oc1ccc(SC)c(C)c1` was 170.00 °C.
In turn, `Cc1cc(C)cc(N)c1.Cc1ccc(C)c(N)c1.Cc1ccc(N)c(C)c1.Cc1ccc(N)cc1C.Cc1cccc(C)c1N.Cc1cccc(N)c1C` yielded a flash point of 97.00 °C.
With `COc1nc(C)nc(NC(=O)NS(=O)(=O)c2ccccc2CCC(F)(F)F)n1`, the flash point was found to be 100.00 °C.
With `CCC(CC)C(=O)OCCOCCOCCOC(=O)C(CC)CC` the figure was 196.00 °C; with `CC(C)CC(C)C(C)C.CCCC(C)CC(C)C.CCCCC(C)C(C)C` (stereo not drawn), 24.00 °C; with `CCCCC(CC)CN1C(=O)C2C3C=CC(C3)C2C1=O` (stereo not drawn), 177.00 °C.
With `CCCCCCC(O)C/C=C\CCCCCCCC(=O)OCC(COC(=O)CCCCCCC/C=C\CC(O)CCCCCC)OC(=O)CCCCCCC/C=C\CC(O)CCCCCC` (stereo not drawn) the figure was 229.00 °C; with `CCCN(CCCl)c1c([N+](=O)[O-])cc(C(F)(F)F)cc1[N+](=O)[O-]`, 30.00 °C.
With `CCOC(=O)C1CC(=O)C(=C(O)C2CC2)C(=O)C1` (stereo not drawn) the figure was 133.00 °C; with `CCOP(=O)(OCC)SCCSCC.CCOP(=S)(OCC)OCCSCC`, 45.00 °C; with `CCOP(=S)(Oc1ccc([N+](=O)[O-])cc1)c1ccccc1` (stereo not drawn), 30.00 °C.
As to `CCOP(=S)(OCC)SCn1c(=O)oc2cc(Cl)ccc21`, the flash point is 100.00 °C.
`CCOP(=S)(OCC)SCSCC`: the flash point is 160.00 °C.
The value for `CCOP(=S)(OCC)SCSP(=S)(OCC)OCC` was 176.00 °C; that for `C#CCOc1cccc(-c2cc(C(F)(F)F)nc(S(=O)CC)n2)c1` (stereo not drawn) was 240.00 °C.
With `CN(C)CCCC1(c2ccccc2)C(=O)N(N(C)Cc2ccccc2F)c2ccccc21` (stereo not drawn) the figure was 193.00 °C; with `COc1nn(CSP(=S)(OC)OC)c(=O)s1`, 100.00 °C.
With `C[C@@H]1[C@@H](c2ccc(Cl)cc2)SC(=O)N1C(=O)NC1CCCCC1` the figure was 100.00 °C.
For the molecule `C[Si]1(C)O[Si](C)(C)O[Si](C)(C)O[Si](C)(C)O1`, the flash point turned out to be 55.00 °C.
The value for `C[Si]1(C)O[Si](C)(C)O[Si](C)(C)O[Si](C)(C)O[Si](C)(C)O[Si](C)(C)O1` was 91.00 °C.
Molecule `c1ccc(-c2ccccc2)cc1` [1,1'-biphenyl] came in with a flash point of 113.00 °C.
With `CC1=Nc2ccc3ccccc3c2C1(C)C` [1,1,2-trimethylbenzo[e]indole] the figure was 182.00 °C.
The value for `CC(Cl)(Cl)[N+](=O)[O-]` [1,1-dichloro-1-nitroethane] was 76.00 °C; that for `CC(C)OC(C)C(Cl)Cl` (stereo not drawn) [1,1-dichloro-2-propan-2-yloxypropane] was 85.00 °C; that for `CC(Cl)Cl` [1,1-dichloroethane] was -6.00 °C.
With `C=C(Cl)Cl` [1,1-dichloroethene] the figure was -10.00 °C; with `CCOC(C)OCC` [1,1-diethoxyethane], -21.00 °C.
The molecule `CC(C)c1ccc(NC(=O)N(C)C)cc1` [1,1-dimethyl-3-(4-propan-2-ylphenyl)urea] displayed a flash point of 100.00 °C.
In turn, `CN(C)N` [1,1-dimethylhydrazine] returned a flash point of -15.00 °C.
`Clc1c(Cl)c(Cl)c(Cl)c(Cl)c1Cl` [1,2,3,4,5,6-hexachlorobenzene] returned a flash point of 242.00 °C.
The value for `O=[N+]([O-])c1c(Cl)c(Cl)c(Cl)c(Cl)c1Cl` [1,2,3,4,5-pentachloro-6-nitrobenzene] was 127.00 °C; that for `c1ccc2c(c1)CCCC2` [1,2,3,4-tetrahydronaphthalene] was 80.00 °C.
With `Clc1ccc(-c2ccc(Cl)c(Cl)c2Cl)c(Cl)c1Cl` [1,2,3-trichloro-4-(2,3,4-trichlorophenyl)benzene] the figure was 141.00 °C; with `ClC=C(Cl)CCl` [1,2,3-trichloroprop-1-ene], 85.00 °C.
As to `ClCC(Cl)CCl` [1,2,3-trichloropropane], the flash point amounted to 82.00 °C.
The molecule `CCc1cccc(CC)c1CC` [1,2,3-triethylbenzene] showed a flash point of 83.00 °C.
`Clc1cc(Cl)c(Cl)cc1Cl` [1,2,4,5-tetrachlorobenzene] had a flash point of 155.00 °C.
With `CC(C)c1ccccc1C(C)C` [1,2-di(propan-2-yl)benzene] the figure was 77.00 °C.
With `O=[N+]([O-])c1cccc(Cl)c1Cl` [1,2-dichloro-3-nitrobenzene] the figure was 124.00 °C; with `O=[N+]([O-])c1ccc(Cl)c(Cl)c1` [1,2-dichloro-4-nitrobenzene], 124.00 °C; with `Clc1ccccc1Cl` [1,2-dichlorobenzene], 66.00 °C.
The value for `ClCCCl` [1,2-dichloroethane] was 13.00 °C; that for `CC(=O)OC(Cl)CCl` (stereo not drawn) [1,2-dichloroethyl acetate] was 153.00 °C; that for `CC(Cl)CCl.ClC=CCCl` (stereo not drawn) [1,2-dichloropropane;(E)-1,3-dichloroprop-1-ene] was 17.00 °C.
Take `CC(Cl)CCl` (stereo not drawn) [1,2-dichloropropane]: the flash point stood at 16.00 °C.
For `CCOCCOCC` [1,2-diethoxyethane], the flash point stood at 35.00 °C.
`O=C=Nc1ccc2ccccc2c1N=C=O` [1,2-diisocyanatonaphthalene] registered a flash point of 192.00 °C.
In the case of `Cc1cccc([N+](=O)[O-])c1C` [1,2-dimethyl-3-nitrobenzene], the flash point was found to be 107.00 °C.
The value for `c1ccc(-c2ccccc2-c2ccccc2)cc1` [1,2-diphenylbenzene] was 163.00 °C; that for `Cc1ccccc1C` [1,2-xylene] was 17.00 °C.
`CC12CCC(CC1)C(C)(C)O2` [1,3,3-trimethyl-2-oxabicyclo[2.2.2]octane] gave a flash point of 49.00 °C.
With `ClC1=C(Cl)C2(Cl)C3C(Cl)C(Cl)CC3C1(Cl)C2(Cl)Cl` (stereo not drawn) [1,3,4,7,8,9,10,10-octachlorotricyclo[5.2.1.02,6]dec-8-ene] the figure was 107.00 °C; with `C1N2CN3CN1CN(C2)C3` [1,3,5,7-tetrazatricyclo[3.3.1.13,7]decane], 250.00 °C.
The value for `C1OCOCO1` [1,3,5-trioxane] was 45.00 °C; that for `Cc1c(Cl)cccc1Cl` [1,3-dichloro-2-methylbenzene] was 82.00 °C.
On to `CC1(C)C(=O)N(Cl)C(=O)N1Cl` [1,3-dichloro-5,5-dimethylimidazolidine-2,4-dione], for which the flash point turned out to be 174.00 °C.
With `Clc1cccc(-c2cc(Cl)cc(Cl)c2)c1` [1,3-dichloro-5-(3-chlorophenyl)benzene] the figure was 141.00 °C.
The value for `Clc1cccc(Cl)c1` [1,3-dichlorobenzene] was 63.00 °C; that for `OC(CCl)CCl` [1,3-dichloropropan-2-ol] was 74.00 °C; that for `Cc1c(N=C=O)cccc1N=C=O` [1,3-diisocyanato-2-methylbenzene] was 132.00 °C.
The value for `CNC(=O)NC` [1,3-dimethylurea] was 154.00 °C; that for `C1COCO1` [1,3-dioxolane] was 2.00 °C; that for `Cc1cccc(C)c1` [1,3-xylene] was 29.00 °C.
Consider `Clc1ccc(Cl)cc1` [1,4-dichlorobenzene], for which the flash point was determined as 66.00 °C.
`CCc1ccc(CC)cc1` [1,4-diethylbenzene]: the flash point worked out at 56.00 °C.
The value for `COc1ccc(OC)cc1` [1,4-dimethoxybenzene] was 88.00 °C.
With `O=C=Nc1cccc2c(N=C=O)cccc12` [1,5-diisocyanatonaphthalene] the figure was 155.00 °C.
In turn, `ClCCCCCCCl` [1,6-dichlorohexane] came in with a flash point of 74.00 °C.
In turn, `OOC1(OOC2(O)CCCCC2)CCCCC1` [1-(1-hydroperoxycyclohexyl)peroxycyclohexan-1-ol] displayed a flash point of 157.00 °C.
Regarding `CCCCOCCOCCCC` [1-(2-butoxyethoxy)butane], the flash point is 85.00 °C.
`CC1CCC(C(C)(C)OO)CC1` (stereo not drawn) [1-(2-hydroperoxypropan-2-yl)-4-methylcyclohexane] gave a flash point of 53.00 °C.
For `CC(O)COCC(C)O` (stereo not drawn) [1-(2-hydroxypropoxy)propan-2-ol], the flash point came to 138.00 °C.
